Data: US20240239812A1, “MACROCYCLIC 2-ALLYLTETRAHYDROFURANS AS INHIBITORS OF MCL-1” (JANSSEN PHARMACEUTICA NV, priority 2021, published 2024)
pKi: −log10 of the molar value. Where two headings read alike, the source gives them in different places.

Tests used:
[1] = test system: MOLP-8 human multiple myeloma cell line; experiment: Caspase-Glo 3/7 apoptosis induction assay in MOLP-8 cells; type: cell-based; details: caspase-3/7 activity, 2 hours at 37° C., averaged over all runs on all batches, read-out: MOLP8 AC50
Text: MCL-1 is a regulator of apoptosis and is highly over-expressed in tumor cells that escape cell death. The assay evaluates the cellular potency of small-molecule compounds targeting regulators of the apoptosis pathway, primarily MCL-1, Bfl-1, Bcl-2, and other proteins of the Bcl-2 family. Protein-protein inhibitors disrupting the interaction of anti-apoptotic regulators with BH3-domain proteins initiate apoptosis.
The Caspase-Glo® 3/7 Assay is a luminescent assay that measures caspase-3 and -7 activities in purified enzyme preparations or cultures of adherent or suspension cells. The assay provides a proluminescent caspase-3/7 substrate, which contains the tetrapeptide sequence DEVD. This substrate is cleaved to release aminoluciferin, a substrate of luciferase used in the production of light. Addition of the single Caspase-Glo® 3/7 Reagent in an “add-mix-measure” format results in cell lysis, followed by caspase cleavage of the substrate and generation of a “glow-type” luminescent signal.
This assay uses the MOLP-8 human multiple myeloma cell line, which is sensitive to MCL-1 inhibition.
Cell cultures were maintained between 0.2 and 2.0×10^6 cells/mL. The cells were harvested by collection in 50 mL conical tubes. The cells were then pelleted at 500 g for 5 mins before removing supernatant and resuspension in fresh pre-warmed culture medium. The cells were counted and diluted as needed.
The assay reagent was prepared by transferring the buffer solution to the substrate vial and mixing. The solution may be stored for up to 1 week at 4° C. with negligible loss of signal.
Compounds were delivered in assay-ready plates (Proxiplate) and stored at −20° C.
Assays always include 1 reference compound plate containing reference compounds. The plates were spotted with 40 nL of compounds (0.5% DMSO final in cells; serial dilution; 30 μM highest conc. 1/3 dilution, 10 doses, duplicates). The compounds were used at room temperature and 4 μL of pre-warmed media was added to all wells except column 2 and 23. The negative control was prepared by adding 1% DMSO in media. The positive control was prepared by adding the appropriate positive control compound in final concentration of 60 μM in media. The plate was prepared by adding 4 μL negative control to column 23, 4 μL positive control to column 2, and 4 μL cell suspension to all wells in the plate. The plate with cells was then incubated at 37° C. for 2 hours. The assay signal reagent is the Caspase-Glo solution described above, and 8 μL was added to all wells. The plates were then sealed and measured after 30 minutes.
The activity of a test compound was calculated as percent change in apoptosis induction as follows: […]

[2] = target: Myeloid Cell Leukemia 1 (Mcl-1) (Homo sapiens (Human), UniProt Q07820); experiment: Terbium labeled Mcl-1 HTRF binding assay, displacement of Cy5-labeled BIM BH3 peptide; details: 25 pM Tb-Mcl-1, 8 nM Cy5 Bim peptide, 60 minutes at room temperature, read-out: Tb-MCL1 Ki
Myeloid Cell Leukemia 1 (Mcl-1), sequence (Q07820 whole entry): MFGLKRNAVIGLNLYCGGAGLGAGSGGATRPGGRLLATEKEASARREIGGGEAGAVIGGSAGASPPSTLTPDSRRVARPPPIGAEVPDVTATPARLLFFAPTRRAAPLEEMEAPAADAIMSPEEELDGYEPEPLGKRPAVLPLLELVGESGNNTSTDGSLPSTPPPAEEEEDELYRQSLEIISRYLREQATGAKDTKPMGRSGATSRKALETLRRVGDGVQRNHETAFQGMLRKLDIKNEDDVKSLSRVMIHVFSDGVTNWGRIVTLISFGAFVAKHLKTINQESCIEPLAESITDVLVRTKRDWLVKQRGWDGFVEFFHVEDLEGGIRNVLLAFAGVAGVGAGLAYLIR
Method: Terbium labeled Myeloid Cell Leukemia 1 (Mcl-1) homogeneous time-resolved fluorescence (HTRF) binding assay utilizing the BIM BH3 peptide (H2N—(C/Cy5Mal) WIAQELRRIGDEFN-OH) as the binding partner for Mcl-1.
This assay evaluated inhibition of the BH3 domain: Mcl-1 interaction by measuring the displacement of Cy5-labeled BIM BH3 peptide (H2N—(C/Cy5Mal) WIAQELRRIGDEFN-OH) in the HTRF assay format.
The following assay and stock buffers were prepared for use in the assay: (a) Stock buffer: 10 mM Tris-HCl, pH=7.5+150 mM NaCl, filtered, sterilized, and stored at 4° C.; and (b) 1× assay buffer, where the following ingredients were added fresh to stock buffer: 2 mM dithiothreitol (DTT), 0.0025% Tween-20, 0.1 mg/mL bovine serum albumin (BSA). The 1×Tb-Mcl-1+Cy5 Bim peptide solution was prepared by diluting the protein stock solution using the 1× assay buffer (b) to 25 pM Tb-Mcl-1 and 8 nM Cy5 Bim peptide.
Using the Acoustic ECHO, 100 nL of 100× test compound(s) were dispensed into individual wells of a white 384-well Perkin Elmer Proxiplate, for a final compound concentration of 1× and final DMSO concentration of 1%. Inhibitor control and neutral control (NC, 100 nL of 100% DMSO) were stamped into columns 23 and 24 of assay plate, respectively. Into each well of the plate was then dispensed 10 μL of the 1×Tb-Mcl-1+Cy5 Bim peptide solution. The plate was centrifuged with a cover plate at 1000 rpm for 1 minute, then incubated for 60 minutes at room temperature with plates covered.
The TR-FRET signal was read on an BMG PHERAStar FSX MicroPlate Reader at room temperature using the HTRF optic module (HTRF: excitation: 337 nm, light source: laser, emission A: 665 nm, emission B: 620 nm, integration start: 60 μs, integration time: 400 μs).
The BMG PHERAStar FSX MicroPlate Reader was used to measure fluorescence intensity at two emission wavelengths—665 nm and 620 nm—and report relative fluorescence units (RFU) for both emissions, as well as a ratio of the emissions (665 nm/620 nm)*10,000. The RFU values were normalized to percent inhibition as follows:
% inhibition(((NC−IC)−(compound−IC))/(NC−IC))*100
where IC (inhibitor control, low signal)=mean signal of 1× Tb-MCl-1+Cy5 Bim peptide+inhibitor control or 100% inhibition of Mcl-1; NC (neutral control, high signal)=mean signal 1×Tb-MCl-1+Cy5 Bim peptide with DMSO only or 0% inhibition
An 11-point dose response curve was generated to determine IC50 values (using GenData) based on the following equation:
where Y=% inhibition in the presence of X inhibitor concentration; Top=100% inhibition derived from the IC (mean signal of Mcl-1+inhibitor control); Bottom=0% inhibition derived from the NC (mean signal of Mcl-1+DMSO); Hillslope=Hill coefficient; and IC50=concentration of compound with 50% inhibition in relation to top/neutral control (NC).
Representative compounds of the present invention were tested according to the procedure as described above, with results as listed in the Table below (n.d. means not determined).

Row | Compound | AC50 [1] [nM] | pKi [2] | AC50 ([1]; Homo sapiens, MOLP-8, 2 h) [nM]
1 | C[C@@H]1[C@@H](C)C/C=C(\F)C(OCCN2CCOCC2)[C@@H]2OCC[C@H]2CN2C[C@@]3(CCCc4cc(Cl)ccc43)COc3ccc(cc32)C(=O)NS1(=O)=O (single isomer, unassigned) [Compound 4] | 314 | 9.72 | –
2 | C[C@@H]1[C@@H](C)C/C=C(\F)C(OCCN2CCOCC2)[C@@H]2OCC[C@H]2CN2C[C@@]3(CCCc4cc(Cl)ccc43)COc3ccc(cc32)C(=O)NS1(=O)=O (single isomer, unassigned) [Compound 5] | 1100 | 9.35 | –
3 | COc1nn(C)cc1C(=O)NS1(=O)=NC(=O)c2ccc3c(c2)N(C[C@@H]2CCO[C@H]2C(OC)/C=C/C[C@H](C)C1)C[C@@]1(CCCc2cc(Cl)ccc21)CO3 (single isomer, unassigned) [Compound 8] | 34 | 10.64 | –
4 | COc1nn(C)cc1C(=O)NS1(=O)=NC(=O)c2ccc3c(c2)N(C[C@@H]2CCO[C@H]2C(OC)/C=C/C[C@H](C)C1)C[C@@]1(CCCc2cc(Cl)ccc21)CO3 (single isomer, unassigned) [Compound 9] | 119 | 10.30 | –
5 | COc1nn(C)cc1C(=O)NS1(=O)=NC(=O)c2ccc3c(c2)N(C[C@@H]2CCO[C@H]2C(OC)/C=C/C[C@H](C)C1)C[C@@]1(CCCc2cc(Cl)ccc21)CO3 (single isomer, unassigned) [Compound 10] | 453 | 9.40 | –
6 | COc1nn(C)cc1C(=O)NS1(=O)=NC(=O)c2ccc3c(c2)N(C[C@@H]2CCO[C@H]2C(OC)/C=C/C[C@H](C)C1)C[C@@]1(CCCc2cc(Cl)ccc21)CO3 (single isomer, unassigned) [Compound 11] | 1310 | 9.03 | –
7 | COC1/C(F)=C/C[C@H](C)[C@@H](C)S(=O)(=O)NC(=O)c2cnc3c(n2)N(C[C@@H]2CCO[C@@H]12)C[C@@]1(CCCc2cc(Cl)ccc21)CO3 (single isomer, unassigned) [Compound 12] | 1220 | 8.28 | –
8 | COC1/C(F)=C/C[C@H](C)[C@@H](C)S(=O)(=O)NC(=O)c2cnc3c(n2)N(C[C@@H]2CCO[C@@H]12)C[C@@]1(CCCc2cc(Cl)ccc21)CO3 (single isomer, unassigned) [Compound 13] | 15200 | 7.45 | –
9 | C[C@@H]1[C@@H](C)C/C=C/C(CO)[C@@H]2OCC[C@H]2CN2C[C@@]3(CCCc4cc(Cl)ccc43)COc3ccc(cc32)C(=O)NS1(=O)=O (single isomer, unassigned) [Compound 14] | 1250 | 9.28 | –
10 | C[C@@H]1[C@@H](C)C/C=C/C(CO)[C@@H]2OCC[C@H]2CN2C[C@@]3(CCCc4cc(Cl)ccc43)COc3ccc(cc32)C(=O)NS1(=O)=O (single isomer, unassigned) [Compound 15] | 2920 | 9.20 | –
11 | COCCN(CCOC)CC1(OC)/C(F)=C/C[C@H](C)[C@@H](C)S(=O)(=O)NC(=O)c2ccc3c(c2)N(C[C@@H]2CCO[C@H]21)C[C@@]1(CCCc2cc(Cl)ccc21)CO3 (single isomer, unassigned) [Compound 18] | – | 10.02 | 412
12 | C[C@@H]1[C@@H](C)C/C=C/C(O)[C@@H]2OCC[C@H]2CN2C[C@@]3(CCCc4cc(Cl)ccc43)COc3ccc(cc32)C(=O)NS1(=O)=O (single isomer, unassigned) [Compound 19] | – | 9.14 | 752
13 | C[C@@H]1[C@@H](C)C/C=C/C(OCCN2CCOCC2)[C@@H]2OCC[C@H]2CN2C[C@@]3(CCCc4cc(Cl)ccc43)COc3ccc(cc32)C(=O)NS1(=O)=O (single isomer, unassigned) [Compound 20] | – | 9.65 | 616
14 | C[C@@H]1[C@@H](C)C/C=C(\F)C(O)(CC(=O)N(C)C)[C@@H]2OCC[C@H]2CN2C[C@@]3(CCCc4cc(Cl)ccc43)COc3ccc(cc32)C(=O)NS1(=O)=O (single isomer, unassigned) [Compound 21] | 436 | 9.74 | –
15 | C[C@@H]1[C@@H](C)C/C=C(\F)C(O)(CC(=O)N(C)C)[C@@H]2OCC[C@H]2CN2C[C@@]3(CCCc4cc(Cl)ccc43)COc3ccc(cc32)C(=O)NS1(=O)=O (single isomer, unassigned) [Compound 22] | 4830 | 9.01 | –
16 | COc1nn(C)cc1C(=O)NS1(=O)=NC(=O)c2ccc3c(c2)N(C[C@@H]2CCO[C@H]2C(OC)/C(F)=C/C[C@H](C)C1)C[C@@]1(CCCc2cc(Cl)ccc21)CO3 (single isomer, unassigned) [Compound 23] | 2420 | 9.60 | –
17 | COc1nn(C)cc1C(=O)NS1(=O)=NC(=O)c2ccc3c(c2)N(C[C@@H]2CCO[C@H]2C(OC)/C(F)=C/C[C@H](C)C1)C[C@@]1(CCCc2cc(Cl)ccc21)CO3 (single isomer, unassigned) [Compound 24] | 44 | 10.96 | –
18 | COc1nn(C)cc1C(=O)NS1(=O)=NC(=O)c2ccc3c(c2)N(C[C@@H]2CCO[C@H]2C(OC)/C(F)=C/C[C@H](C)C1)C[C@@]1(CCCc2cc(Cl)ccc21)CO3 (single isomer, unassigned) [Compound 25] | 486 | 10.60 | –
19 | COc1nn(C)cc1C(=O)NS1(=O)=NC(=O)c2ccc3c(c2)N(C[C@@H]2CCO[C@H]2C(OC)/C(F)=C/C[C@H](C)C1)C[C@@]1(CCCc2cc(Cl)ccc21)CO3 (single isomer, unassigned) [Compound 26] | > 5000 | 8.29 | –
20 | COc1nn(C)cc1C(=O)NS1(=O)=NC(=O)c2ccc3c(c2)N(C[C@@H]2CCO[C@H]2C(CN2CCN4CCOC[C@@H]4C2)(OC)/C(F)=C/C[C@H](C)C1)C[C@@]1(CCCc2cc(Cl)ccc21)CO3 (single isomer, unassigned) [Compound 27] | 424 | 10.32 | –
21 | CO[C@@]1(CN2CCN3CCOC[C@@H]3C2)/C(F)=C/C[C@H](C)[C@@H](C)S(=O)(=O)NC(=O)c2ccc3c(c2)N(C[C@@H]2CCO[C@H]21)C[C@@]1(CCCc2cc(Cl)ccc21)CO3 [Compound 6] | – | – | 69
22 | CO[C@]1(CN2CCN3CCOC[C@@H]3C2)/C(F)=C/C[C@H](C)[C@@H](C)S(=O)(=O)NC(=O)c2ccc3c(c2)N(C[C@@H]2CCO[C@H]21)C[C@@]1(CCCc2cc(Cl)ccc21)CO3 [Compound 7] | – | – | 88
